Experimental data taken from US10821115B2, “Compounds that inhibit Mcl-1 protein” (priority 2017, dated 2020).
pIC50: −log10 of the molar value. Read-outs that look alike come from different tables or passages of the source.

What was measured:
[1] = molecular target: recombinant human Mcl-1 (residues 171-327) / Bim interaction (Homo sapiens (Human), UniProt Q07820); assay: biochemical; type: binding; details: read-out: Mcl-1 HTRF IC50
[2] = tested on: human multiple myeloma cell line, OPM-2; assay: Cell viability assay (OPM-2 10 FBS), CellTiter-Glo; type: cell-based
Procedure, shortened: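 IC50 values come from 4-parameter logistic fits of luminescence signals reflecting cell viability. Treatment lasted 16 h at 37 °C in complete medium with 10% FBS, starting from 3000 cells/well.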

[3] = Homo sapiens, OPM-2, 16 h, read-out: OPM-2 10% FBS IC50 IP, OPM-2 cells, 10% FBS, 16 h, CellTiter-Glo
[4] = 0.1 nM Mcl-1(171-327), 0.05 nM biotin-Bim (51-76)
[5] = Homo sapiens, OPM-2, 16 h, read-out: OPM-2 10% FBS IC50 IP, OPM-2 cells, 10% FBS, 16 h incubation
[6] = TR-FRET, Mcl-1(171-327) / biotin-Bim (51-76)
[7] = read-out: OPM-2 10% FBS IC50 IP, OPM-2 cells, 10% FBS, 16 h, CellTiter-Glo

recombinant human Mcl-1 (residues 171-327) / Bim interaction, sequence (Q07820 171-327): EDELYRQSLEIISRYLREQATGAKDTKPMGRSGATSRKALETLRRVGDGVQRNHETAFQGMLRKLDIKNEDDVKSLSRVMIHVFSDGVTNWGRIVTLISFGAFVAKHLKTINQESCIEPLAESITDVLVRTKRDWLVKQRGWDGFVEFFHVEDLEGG

SMILES | pIC50 [2, 3] | pIC50 [1, 4] | pIC50 [1, 6] | other results
C[C@@H]1[C@@H](C)C/C=C/[C@@](C)(O)[C@@H]2CC[C@H]2CN2C[C@@]3(CCCc4cc(Cl)ccc43)COc3ccc(cc32)C(=O)NS1(=O)=O [Example 100182, (1S,3′R,6′R,7′R,8′E,11′S,12′R)-6-chloro-7′-hydroxy-7′,11′,12′-trimethyl-3,4-dihydro-2H,15′H-spiro[naphthalene-1,22′-[20]oxa[13]thia[1,14]diazatetracyclo [14.7.2.0~3,6~.0~19,24~]pentacosa[8,16,18,24]tetraen]-15′-one 13′,13′-dioxide] | 6.08 | – | – | pIC50 [1]: 9.06
CO[C@@]1(CN2CCN(CC(F)(F)F)CC2)/C=C/C[C@H](C)[C@@H](C)S(=O)(=O)NC(=O)c2ccc3c(c2)N(C[C@@H]2CC[C@H]21)C[C@@]1(CCCc2cc(Cl)ccc21)CO3 [Example 248, (1S,3′R,6′R,7′S,8′E,11′S,12′R)-6-chloro-7′-methoxy-11′,12′-dimethyl-7′-((4-(2,2,2-trifluoroethyl)-1-piperazinyl)methyl)-3,4-dihydro-2H,15′H-spiro[naphthalene-1,22′-[20]oxa[13]thia[1,14]diazatetracyclo [14.7.2.0~3,6~.0~19,24~]pentacosa[8,16,18,24]tetraen]-15′-one 13′,13′-dioxide] | – | 9.65 | – | pIC50 [2, 5]: 6.29
C=C(F)C[C@@]1(O)/C=C/C[C@H](C)[C@@H](C)S(=O)(=O)NC(=O)c2ccc3c(c2)N(C[C@@H]2CC[C@H]21)C[C@@]1(CCCc2cc(Cl)ccc21)CO3 [Example 100564, (1S,3′R,6′R,7′R,8′E,11′S,12′R)-6-chloro-7′-(2-fluoro-2-propen-1-yl)-7′-hydroxy-11′,12′-dimethyl-3,4-dihydro-2H,15′H-spiro[naphthalene-1,22′-[20]oxa[13]thia[1,14]diazatetracyclo [14.7.2.0~3,6~.0~19,24~]pentacosa[8,16,18,24]tetraen]-15′-one 13′,13′-dioxide] | 5.84 | – | 9.48 | –
CO[C@@]1(CN2CCN3CCC(F)(F)C[C@@H]3C2)/C=C/C[C@H](C)[C@@H](C)S(=O)(=O)NC(=O)c2ccc3c(c2)N(C[C@@H]2CC[C@H]21)C[C@@]1(CCCc2cc(Cl)ccc21)CO3 (single isomer, unassigned) [Example 288] | – | 9.32 | – | pIC50 ([2]; read-out: OPM-2 10% FBS IC50 IP, OPM-2 cells, 10% FBS, 16 h incubation): 6.19
C[C@@H]1[C@@H](C)C/C=C/[C@]2(CN(Cc3ccncc3)CCO2)[C@@H]2CC[C@H]2CN2C[C@@]3(CCCc4cc(Cl)ccc43)COc3ccc(cc32)C(=O)NS1(=O)=O [Example 136, (1S,3′R,6′R,7′R,8′E,11′S,12′R)-6-chloro-11′,12′-dimethyl-4″- (4-pyridinylmethyl)-3,4-dihydro-2H,15′H-dispiro[naphthalene-1,22′-[20]oxa[13]thia[1,14]diazatetracyclo [14.7.2.0~3,6~.0~19,24~]pentacosa[8,16,18,24]tetraene-7′,2″-[1,4]oxazinan]-15′-one 13′,13′-dioxide] | – | 8.33 | – | pIC50 [2, 5]: 5.99
C[C@@H]1[C@@H](C)CCC[C@@](O)(Cc2ccncn2)[C@@H]2CC[C@H]2CN2C[C@@]3(CCCc4cc(Cl)ccc43)COc3ccc(cc32)C(=O)NS1(=O)=O [Example 100113, (1S,3′R,6′R,7′R,11′S,12′R)-6-chloro-7′-hydroxy-11′,12′-dimethyl-7′-(4-pyrimidinylmethyl)-3,4-dihydro-2H,15′H-spiro[naphthalene-1,22′-[20]oxa[13]thia[1,14]diazatetracyclo [14.7.2.0~3,6~.0~19,24~]pentacosa[16,18,24]trien]-15′-one 13′,13′-dioxide] | – | – | 9.74 | pIC50 [2, 7]: 7.15
CO[C@]1(CN2CCN3CCOC[C@@H]3C2)/C=C/C[C@H](C)[C@@H](CCO)S(=O)(=O)NC(=O)c2ccc3c(c2)N(C[C@@H]2CC[C@H]21)C[C@@]1(CCCc2cc(Cl)ccc21)CO3 [Example 357, (1S,3′R,6′R,7′R,8′E,11′S,12′R)-6-chloro-7′-((9aS)-hexahydropyrazino[2,1-c][1,4]oxazin-8(1H)-ylmethyl)-12′-(2-hydroxyethyl)-7′-methoxy-11′-methyl-3 ,4-dihydro-2H,15′H-spiro[naphthalene-1,22′-[20]oxa[13]thia[1,14]diazatetracyclo [14.7.2.0~3,6~.0~19,24~]pentacosa[8,16,18,24]tetraen]-15′-one 13′,13′-dioxide] | – | 10.17 | – | pIC50 [2, 5]: 6.93
C[C@@H]1[C@@H](C)C/C=C/[C@@](O)(C#CCN(C)C)[C@@H]2CC[C@H]2CN2C[C@@]3(CCCc4cc(Cl)ccc43)COc3ccc(cc32)C(=O)NS1(=O)=O [Example 100295, (1S,3′R,6′R,7′S,8′E,11′S,12′R)-6-chloro-7′-(3-(dimethylamino)-1-propyn-1-yl)-7′-hydroxy-11′,12′-dimethyl-3,4-dihydro-2H,15′H-spiro[naphthalene-1,22′-[20]oxa[13]thia[1,14]diazatetracyclo [14.7.2.0~3,6~.0~19,24~]pentacosa[8,16,18,24]tetraen]-15′-one 13′,13′-dioxide] | – | – | 9.55 | pIC50 [2, 7]: 6.52
Cc1ncc([C@@]2(O)/C=C/C[C@H](C)[C@@H](C)S(=O)(=O)NC(=O)c3ccc4c(c3)N(C[C@@H]3CC[C@H]32)C[C@@]2(CCCc3cc(Cl)ccc32)CO4)n1C (single isomer, unassigned) [Example 100555] | 6.95 | – | 10.00 | –
CO[C@]1(C[C@H](O)C(C)C)/C=C/C[C@H](C)[C@@H](C)S(=O)(=O)NC(=O)c2ccc3c(c2)N(C[C@@H]2CC[C@H]21)C[C@@]1(CCCc2cc(Cl)ccc21)CO3 [Example 100359, (1S,3′R,6′R,7′R,8′E,11′S,12′R)-6-chloro-7′-((2S)-2-hydroxy-3-methylbutyl)-7′-methoxy-11′,12′-dimethyl-3,4-dihydro-2H,15′H-spiro[naphthalene-1,22′-[20]oxa[13]thia[1,14]diazatetracyclo [14.7.2.0~3,6~.0~19,24~]pentacosa[8,16,18,24]tetraen]-15′-one 13′,13′-dioxide] | – | – | 8.92 | pIC50 [2, 7]: 5.81
CO[C@@]1(c2nccn2C)/C=C/C[C@H](C)[C@@H](C)S(=O)(=O)NC(=O)c2ccc3c(c2)N(C[C@@H]2CC[C@H]21)C[C@@]1(CCCc2cc(Cl)ccc21)CO3 (single isomer, unassigned) [Example 100556] | 6.13 | – | 9.95 | –
CCCO[C@]1(CN2CCN3CCOC[C@@H]3C2)/C=C/C[C@H](C)[C@@H](C)S(=O)(=O)NC(=O)c2ccc3c(c2)N(C[C@@H]2CC[C@H]21)C[C@@]1(CCCc2cc(Cl)ccc21)CO3 [Example 351, (1S,3′R,6′R,7′R,8′E,11′S,12′R)-6-chloro-7′-((9aS)-hexahydropyrazino[2,1-c][1,4]oxazin-8(1H)-ylmethyl)-11′,12′-dimethyl-7′-propoxy-3,4-dihydro-2H,15′H-spiro[naphthalene-1,22′-[20]oxa[13]thia[1,14]diazatetracyclo [14.7.2.0~3,6~.0~19,24~]pentacosa[8,16,18,24]tetraen]-15′-one 13′,13′-dioxide] | – | 9.92 | – | pIC50 [2, 5]: 6.71
C[C@@H]1[C@@H](C)CCC[C@](C)([C@H]2OC[C@@H](N(C)C)CO2)[C@@H]2CC[C@H]2CN2C[C@@]3(CCCc4cc(Cl)ccc43)COc3ccc(cc32)C(=O)NS1(=O)=O [Example 100328, (1S,3′R,6′R,7′S,11′S,12′R)-6-chloro-7′-(cis-5-(dimethylamino)-1,3-dioxan-2-yl)-7′,11′,12′-trimethyl-3,4-dihydro-2H,15′H-spiro[naphthalene-1,22′-[20]oxa[13]thia[1,14]diazatetracyclo [14.7.2.0~3,6~.0~19,24~]pentacosa[16,18,24]trien]-15′-one 13′,13′-dioxide] | 6.74 | – | 9.58 | –
COC1=NO[C@@]2(CCC[C@H](C)[C@@H](C)S(=O)(=O)NC(=O)c3ccc4c(c3)N(C[C@@H]3CC[C@H]32)C[C@@]2(CCCc3cc(Cl)ccc32)CO4)C1 [Example 100134, (1S,3′R,6′R,7′S,11′S,12′R)-6-chloro-3″- methoxy-11′,12′-dimethyl-3,4-dihydro-2H,4″H,15′H-dispiro[naphthalene-1,22′-[20]oxa[13]thia[1,14]diazatetracyclo [14.7.2.0~3,6~.0~19,24~]pentacosa[16,18,24]triene-7′,5″-[1,2]oxazol]-15′-one 13′,13′-dioxide] | 5.45 | – | 9.07 | –
C[C@@H]1[C@@H](C)C/C=C/[C@](O)(c2cccnc2F)[C@@H]2CC[C@H]2CN2C[C@@]3(CCCc4cc(Cl)ccc43)COc3ccc(cc32)C(=O)NS1(=O)=O (single isomer, unassigned) [Example 100314] | – | – | 8.53 | pIC50 [2, 7]: 5.64
CO[C@@]1(CN2CCC2)/C=C/C[C@H](C)[C@@H](C)S(=O)(=O)NC(=O)c2ccc3c(c2)N(C[C@@H]2CC[C@H]21)C[C@@]1(CCCc2cc(Cl)ccc21)CO3 [Example 77, (1S,3′R,6′R,7′S,8′E,11′S,12′R)-7′-(1-azetidinylmethyl)-6-chloro-7′-methoxy-11′,12′-dimethyl-3,4-dihydro-2H,15′H-spiro[naphthalene-1,22′-[20]oxa[13]thia[1,14]diazatetracyclo [14.7.2.0~3,6~.0~19,24~]pentacosa[8,16,18,24]tetraen]-15′-one 13′,13′-dioxide] | – | 8.91 | – | pIC50 [2, 5]: 6.38
C[C@@H]1[C@@H](C)C/C=C/[C@@](O)(C[S@@+](C)[O-])[C@@H]2CC[C@H]2CN2C[C@@]3(CCCc4cc(Cl)ccc43)COc3ccc(cc32)C(=O)NS1(=O)=O (stereo in doubt) [Example 100074] | 5.52 | – | 9.14 | –
